{"source": "patent US20150309029A1", "about": "“Methods for Cancer Diagnosis, Anti-Cancer Drug Screening, and Test of Drug Effectiveness on the Basis of Phoshorylation of Ras at Thr-144 and Thr-148” (Industry-Academic Cooperation Foundation, Yonsei University, priority 2010, published 2015)", "molecules": {"B1": {"name": "Wnt3a: recombinant Wnt3a (protein, UniProt P56704 19-352, looked up)", "Protein Wnt-3a": "SYPIWWSLAVGPQYSSLGSQPILCASIPGLVPKQLRFCRNYVEIMPSVAEGIKIGIQECQHQFRGRRWNCTTVHDSLAIFGPVLDKATRESAFVHAIASAGVAFAVTRSCAEGTAAICGCSSRHQGSPGKGWKWGGCSEDIEFGGMVSREFADARENRPDARSAMNRHNNEAGRQAIASHMHLKCKCHGLSGSCEVKTCWWSQPDFRAIGDFLKDKYDSASEMVVEKHRESRGWVETLRPRYTYFKVPTERDLVYYEASPNFCEPNPETGSFGTRDRTCNVSSHGIDGCDLLCCGRGHNARAERRREKCRCVFHWCCYVSCQECTRVYDVHTCK"}}, "type_in_all_cases": "cell-based, human", "key": {"[1]": {"system": "phosphor-mimetic form of H-Ras", "assay": "Immunoblot of phospho-mimetic H-Ras level in transfected HEK293 cells after ALLN", "conditions": "ALLN for 12 hours, immunoblot (FIG. 5A lower panels)", "procedure": "The protein expression level of the phosphorylation mimetic mutant is too low to be detected due to the severe destabilization; therefore, the proteasomal inhibitor, ALLN was treated to check for the accumulation of phosphor-mimetic form of H-Ras.\nHEK293 cells were transfected with pcDNA3.1-H-Ras, pcDNA3.1-H-Ras-T144E/T148E, or pcDNA3.1-H-Ras-T144D/T148D. For indicated cases, ALLN was also administered for 12 hours. WCEs were immunoblotted with anti-Myc or -α-tubulin antibody (FIG. 5A lower panels). Treatment with ALLN increased the level of phosphor-mimetic form of H-Ras."}, "[2]": {"system": "polyubiquitin-conjugated K- and N-Ras proteins", "assay": "IP/immunoblot of polyubiquitinated K- and N-Ras in transfected HEK293 cells after ALLN", "conditions": "ALLN treatment, IP with anti-Myc (FIG. 8A)", "procedure": "To examine the possibility that K- and N-Ras proteins, similar to H-Ras, were subjected to polyubiquitination by proteasomal degradation, HEK293 cells were transfected with pcDNA3.1-H-Ras, pcDNA3.1-K-Ras, or pcDNA3.1-N-Ras with pCS4-3xFlag-Ub. Cells were treated with ALLN followed by IP with anti-Myc antibody and then immunoblotted with anti-Myc, -α-tubulin, or -Flag antibody. […] Therefore, we confirmed that H-, K-, N-Ras protein stability is regulated by polyubiquitin-dependent proteasomal degradation (FIG. 8A)."}, "[3]": {"system": "Pan-Ras", "assay": "Polyubiquitination of endogenous Pan-Ras in HEK293 cells with Gsk3β siRNA", "conditions": "siRNA knockdown, ALLN 12 hours (FIG. 1A)", "procedure": "Full-length human H-Ras was isolated from a HEK293 cell cDNA library by PCR and then inserted into the pcDNA-3.1-myc vector using EcoRI and HindIII restriction sites. PcDNA3.1-Gsk3β-V5 was constructed in a similar method. HEK293 cells were transfected with vector/nonspecific siRNA, Gsk3β siRNA, or pcDNA3.1-Gsk3β-V5 together with pCS4-3xFlag-Ub for 24 hours and treated with the proteasome inhibitor ALLN for 12 hours. WCEs (whole cell extracts) were then immunoprecipitated (IP) with anti-Pan-Ras antibody to detect the polyubiquitinated H-Ras. WCEs were immunoblotted with antibodies to Gsk3β, Pan-Ras, Myc-H-Ras or α-tubulin. The siRNA sequences for Gsk3β NM_002093) were 5′-[…]-3′ (SEQ ID NO: 2) and 5′-[…]-3′ (SEQ ID NO: 3). The GFP siRNA used for the negative control was 5′-[…]-3′ (SEQ ID NO: 4) (synthesized by Samchully Pharmaceutical, Korea)."}, "[4]": {"system": "H-Ras", "assay": "H-Ras polyubiquitination in HEK293 cells with Gsk3β or Axin siRNA", "conditions": "siRNA knockdown, ALLN 12 hours (FIG. 1C)", "procedure": "Next, HEK293 cells were transfected with vector/nonspecific siRNA, pSUPER-Axin siRNA, pCS2-MT-Axin, siGsk3β, and/or pcDNA3.1-Gsk3β-V5 together with pcDNA3.1-H-Ras and pCS4-3xFlag-Ub for 24 hours and then treated with ALLN for 12 hours. IP and immunoblotting were performed as described above."}, "[5]": {"system": "H-Ras", "assay": "IP/immunoblot of H-Ras polyubiquitination and β-TrCP interaction in HEK293 cells with Wnt3a", "procedure": "HEK293 cells were transfected the pcDNA3.1-H-Ras, pcDNA3.1-H-Ras-T144E/T148E, or pcDNA3.1-H-Ras-T144A/T148A with vector, pcDNA3.1-Gsk3β-V5, and/or pcDNA3.1-Flag-β-TrCP, together with pCS4-3xHA-Ub, treated with ALLN for 12 hours and/or Wnt3a for 2 hours as indicated, and prepared for IP with anti-Myc antibody. IPs and WCEs were immunoblotted with anti-HA, -β-TrCP or -α-tubulin antibody."}}, "note": "Where a SMILES comes first, the peptide text is derived from it. [ ]: non-standard residue; d: D form. Nle = CCCC[C@H](N)C(=O)O"}
{"molecule": "CCCC[C@@H](C=O)NC(=O)[C@H](CC(C)C)NC(=O)[C@H](CC(C)C)NC(C)=O", "note": "[ALLN] (Ac-Leu-Leu-[Nle]-aldehyde)", "values": [{"measurement": "level of phosphor-mimetic form of H-Ras", "setting": "[1]", "result": "increased"}, {"measurement": "accumulation of polyubiquitin-conjugated K- and N-Ras proteins", "setting": "[2]", "result": "accumulation of polyubiquitin-conjugated K- and N-Ras proteins"}]}
{"molecule": "Gsk3β siRNA: siRNA for Gsk3β: 5′-CACUGAUUAUACCUCUAGU-3′ and 5′-CACUGUAACAUAGUCCGAU-3′ (chemistry not given here)", "values": [{"measurement": "levels of Pan-Ras polyubiquitination", "setting": "[3]", "result": "decreased"}, {"measurement": "H-Ras polyubiquitination", "setting": "[4]", "result": "decreased"}]}
{"molecule": "B1", "values": [{"measurement": "polyubiquitination of phospho-deficient form of H-Ras", "setting": "[5]; Wnt3a, T144A/T148A H-Ras", "result": "not affected"}, {"measurement": "polyubiquitination and interaction with β-TrCP of Wt H-Ras increased by Gsk3β transfection", "setting": "[5]; recombinant Wnt3a for 2 hours, Wt H-Ras", "result": "blocked"}]}
